In patent publication US20230233541A1, “SUBSTITUTED BENZAMIDES AS MODULATORS OF TREX1” (Constellation Pharmaceuticals, Inc., priority 2020, published 2023):

Columns and labels:
[1] = biological target: T1, full length human TREX1 (Homo sapiens, UniProt Q9NSU2); assay: TREX1 Biochemical Assay (fluorescence assay, degradation of dsDNA substrate); details: 150 pM TREX1, 60 nM dsDNA substrate, 25 minutes at room temperature; read-out: hTREX1 EC50
T1 construct: N-terminally His-Tev tagged full length human TREX1; His-Tev (His tag with TEV protease site) (N); made in house; host or cells: E. coli
T1 sequence (Q9NSU2 1-314): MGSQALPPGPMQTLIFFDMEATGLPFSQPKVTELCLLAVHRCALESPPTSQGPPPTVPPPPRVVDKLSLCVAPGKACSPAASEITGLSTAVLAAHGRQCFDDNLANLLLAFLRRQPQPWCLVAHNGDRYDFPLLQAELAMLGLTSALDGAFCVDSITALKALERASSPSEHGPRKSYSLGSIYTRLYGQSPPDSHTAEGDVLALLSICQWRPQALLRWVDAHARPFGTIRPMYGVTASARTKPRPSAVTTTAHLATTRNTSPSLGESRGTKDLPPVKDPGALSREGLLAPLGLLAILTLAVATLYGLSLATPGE
Summary of the method: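 E. coli-expressed His-Tev-tagged full-length TREX1 (150 pM) with 60 nM quenched-fluorophore dsDNA in Tris pH 7.4, 150 mM NaCl, 100 mM MgCl2, 1% DMSO, 25 min room temperature, 10-point dose-response. EDTA stop; fluorescence 615 nm (ex 570 nm); IC50 from four-parameter fit against pre-quenched and no-inhibitor controls.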

[2] = biological target: T2, human TREX2 (residues M44-A279) (Homo sapiens, UniProt Q9BQ50); assay: TREX2 Biochemical Assay (fluorescence assay, degradation of dsDNA substrate); details: 2.5 nM TREX2, 60 nM dsDNA substrate, 25 minutes at room temperature; read-out: hTREX2 EC50
T2 construct: human TREX2 (residues M44-A279, expressed in E. coli); His-Tev (His tag with TEV protease site) (N); made in house; host or cells: E. coli
T2 sequence (Q9BQ50 44-279 isoform Q9BQ50-1): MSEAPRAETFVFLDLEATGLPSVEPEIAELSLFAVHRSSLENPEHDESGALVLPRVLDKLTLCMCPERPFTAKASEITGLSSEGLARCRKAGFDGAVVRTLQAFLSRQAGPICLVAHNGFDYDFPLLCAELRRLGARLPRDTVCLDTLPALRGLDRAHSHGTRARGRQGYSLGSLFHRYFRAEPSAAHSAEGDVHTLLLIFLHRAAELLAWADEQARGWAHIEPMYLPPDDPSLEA
Summary of the method: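 His-Tev-tagged human TREX2 (M44-A279, E. coli-expressed) at 2.5 nM final, with 60 nM TEX615/quencher-labelled dsDNA in pH 7.4 Tris buffer with MgCl2 and 1.0% DMSO, 10-point dose-response, 25 min at room temperature, then EDTA quench. Fluorescence read at 615 nm (ex 570 nm). IC50 from four-parameter fit against pre-quenched and no-inhibitor controls.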

EC50 [1] [µM]	EC50 [2] [µM]	SMILES
> 10	> 100	O=C(c1cnon1)N(Cc1cccnc1)Cc1ccc(Cl)cc1Cl [Compound 114]
> 10	> 100	CC(C)c1ccc(C(=O)N(Cc2cccnc2)Cc2cc(Cl)cc(Cl)c2)cc1 [Compound 51]
1 to 10	> 100	O=C(c1ccc(F)c(Br)c1)N(Cc1cccnc1)Cc1ccc(Cl)cc1Cl [Compound 12]
> 10	> 100	O=C(c1cccc(F)c1)N(Cc1cccnc1)CC1CCCCC1 [Compound 132]
< 0.1	1 to 10	O=C(O)c1ccc(CN(Cc2nccc(Cl)c2Cl)C(=O)c2cc(F)cc(F)c2)cn1 [Compound 203]
< 0.1	1 to 10	CC[C@H](c1cccc(Cl)c1Cl)N(Cc1cnc(C(=O)O)c(N)c1)C(=O)c1cc(F)cc(F)c1 [Compound 239]
0.1 to 1	10 to 100	COc1ccnc(CN(Cc2ccc(C(=O)O)nc2)C(=O)c2cc(F)cc(F)c2)c1Cl [Compound 189]
> 10	> 100	O=C(c1cccc(F)c1)N(Cc1ccccn1)Cc1ccc(Cl)cc1Cl [Compound 95]
1 to 10	> 100	O=C(c1ccc(F)c(Cl)c1)N(Cc1cccnc1)Cc1ccc(Cl)cc1Cl [Compound 19]
> 10	> 100	N#Cc1ccc(C(=O)N(Cc2cccnc2)Cc2ccc(Cl)cc2Cl)cc1 [Compound 103]
> 10	> 100	C[C@@H](c1ccc(Cl)cc1Cl)N(Cc1cccnc1)C(=O)c1cccc(F)c1 [Compound 156]
0.1 to 1	10 to 100	C[C@H](c1ccc(Cl)cc1Cl)N(Cc1cccnc1)C(=O)c1cccc(F)c1 [Compound 155]
< 0.1	1 to 10	O=C(O)c1ccc(CN(Cc2cc(Cl)ccc2Cl)C(=O)c2cc(F)cc(F)c2)cn1 [Compound 187]
0.1 to 1	10 to 100	CC[C@H](c1ccc(Cl)cc1Cl)N(Cc1cccnc1)C(=O)c1cccc(F)c1 (single isomer, unassigned) [Compound 157]
> 10	> 100	O=C(c1ccc(Cl)c(Cl)c1)N(Cc1cccnc1)Cc1cc(Cl)cc(Cl)c1 [Compound 75]
> 10	> 100	O=C(c1ccc(Cl)cc1Br)N(Cc1cccnc1)Cc1cc(Cl)cc(Cl)c1 [Compound 63]

EC50 [1] [µM]	EC50 [2] [µM]	SMILES
< 0.1	< 1	C[C@@H](c1cccc(Cl)c1Cl)N(Cc1ccc(C(=O)O)nc1)C(=O)c1cc(F)cc(F)c1 [Compound 174]
> 10	> 100	O=C(c1cccc(F)c1)N(Cc1cccnc1)C1Cc2ccccc2C1 [Compound 134]
> 10	> 100	Cn1ncc2cc(CN(Cc3cccnc3)C(=O)c3cccc(F)c3)ccc21 [Compound 126]
> 10	> 100	O=C(c1ccc(F)cc1)N(Cc1cccnc1)Cc1ccc(Cl)cc1Cl [Compound 98]
< 0.1	1 to 10	CC[C@H](c1cccc(OC)c1Cl)N(Cc1ccc(C(=O)O)nc1)C(=O)c1cc(F)cc(F)c1 [Compound 166]
> 10	> 100	COc1ccccc1CN(Cc1cccnc1)C(=O)c1cccc(F)c1 [Compound 125]
> 10	> 100	Cc1ccc(C(=O)N(Cc2cccnc2)Cc2cc(Cl)cc(Cl)c2)c(Br)c1 [Compound 76]
> 10	> 100	O=C(c1cccc(F)c1)N(Cc1cccnn1)Cc1ccc(Cl)cc1Cl [Compound 107]
> 10	> 100	O=C(c1ccc(-c2ccccc2)cc1)N(Cc1cccnc1)Cc1ccc(Cl)cc1Cl [Compound 24]
0.1 to 1	10 to 100	O=C(O)c1ccc(CN(Cc2ccc(Cl)cc2Cl)C(=O)c2cccc(F)c2)cn1 [Compound 142, 5-({N-[(2,4-dichlorophenyl)methyl]-1-(3-fluorophenyl)formamido}methyl)pyridine-2-carboxylic acid]
< 0.1	< 1	CC[C@H](c1cccc(OC)c1C(F)(F)F)N(Cc1ccc(C(=O)O)nc1)C(=O)c1cc(F)cc(F)c1 [Compound 196]
> 10	> 100	O=C(c1cc(F)cc(F)c1)N(Cc1ccc(-c2cc(C(F)(F)F)n[nH]2)nc1)Cc1ccccc1Cl [Compound 223]
> 10	> 100	O=C(c1ccccc1F)N(Cc1cccnc1)Cc1cc(Cl)cc(Cl)c1 [Compound 37]
0.1 to 1	1 to 10	O=C(O)c1ncc(CN(Cc2cccc(Cl)c2Cl)C(=O)c2cc(F)cc(F)c2)cc1Cl [Compound 204]
1 to 10	10 to 100	O=C(c1cccc(F)c1)N(Cc1cccnc1)Cc1ccc(Cl)cc1Cl [Compound 11]

The next lines start with the compound.

SMILES	EC50 [1] [µM]	EC50 [2] [µM]
COCC(=O)N(Cc1cccnc1)Cc1ccc(Cl)cc1Cl [Compound 92]	> 10	> 100
NC(=O)c1ccc(CN(Cc2cccc(Cl)c2Cl)C(=O)c2cccc(F)c2)cn1 [Compound 149]	> 10	> 100
CC[C@@H](c1cccc(OC)c1Cl)N(Cc1cnc(C(=O)O)c(N)c1)C(=O)c1cc(F)cc(F)c1 [Compound 252]	< 0.1	10 to 100
CN(C)c1cc(CN(Cc2cccc(Cl)c2Cl)C(=O)c2cc(F)cc(F)c2)cnc1C(=O)O [Compound 243]	1 to 10	10 to 100
O=C(c1cc(F)cc(F)c1)N(Cc1cccnc1)[C@@H](c1cn[nH]c1)c1ccc(Cl)cc1Cl [Compound 222]	1 to 10	10 to 100
O=C(O)c1ccc(CN(Cc2ccc(Cl)cc2Cl)C(=O)c2cc(F)cc(F)c2)cc1 [Compound 168]	1 to 10	10 to 100
O=C(O)c1ccc(CN(Cc2ncc3ccccc3c2Cl)C(=O)c2cc(F)cc(F)c2)cn1 [Compound 190]	< 0.1	1 to 10
Cc1nonc1C(=O)N(Cc1cccnc1)Cc1ccc(Cl)cc1Cl [Compound 116]	> 10	> 100
O=C(O)Cn1cc(CN(Cc2ccc(Cl)cc2Cl)C(=O)c2cc(F)cc(F)c2)cn1 [Compound 165, 2-(4-((N-(2,4-dichlorobenzyl)-3,5-difluorobenzamido)methyl)-1H-pyrazol-1-yl)acetic acid]	1 to 10	> 100
COc1cccc([C@@H](C)N(Cc2ccc(-c3ccn[nH]3)nc2)C(=O)c2cc(F)cc(F)c2)c1Cl [Compound 225]	0.1 to 1	10 to 100
CCOc1cccc([C@@H](CC)N(Cc2ccc(C(=O)O)nc2)C(=O)c2cc(F)cc(F)c2)c1Cl [Compound 228]	< 0.1	1 to 10
COc1cccc(CN(Cc2ccc(NC(C)=O)nc2)C(=O)c2cccc(F)c2)c1Cl [Compound 213, N-((6-acetamidopyridin-3-yl)methyl)-N-(2-chloro-3-methoxybenzyl)-3-fluorobenzamide]	> 10	> 100
Cc1cc(C(=O)N(Cc2cccnc2)Cc2cc(Cl)cc(Cl)c2)ccc1Br [Compound 78]	> 10	> 100
O=C(c1cccc(F)c1)N(Cc1cccnc1)Cc1c(F)cccc1Cl [Compound 130]	1 to 10	10 to 100
NC(=O)c1ccc(CN(Cc2cccc(Cl)c2Cl)C(=O)c2cc(F)cc(F)c2)cn1 [Compound 150]	1 to 10	> 100
O=C(c1cc(F)cc(F)c1)N(Cc1ccc(-c2noc(=O)[nH]2)nc1)Cc1cccc(Cl)c1Cl [Compound 262]	0.1 to 1	1 to 10
O=C1NCc2cc(CN(Cc3ccccc3Cl)C(=O)c3cc(F)cc(F)c3)cnc21 [Compound 182]	1 to 10	10 to 100
O=C(Cc1ccccc1)N(Cc1cccnc1)Cc1ccc(Cl)cc1Cl [Compound 94]	> 10	> 100
O=C(c1ccc(Oc2ccc(Br)cc2)cc1)N(Cc1cccnc1)Cc1cc(Cl)cc(Cl)c1 [Compound 77]	> 10	> 100
O=C(c1cc(Br)c(O)c(Br)c1)N(Cc1cccnc1)Cc1ccc(Cl)cc1Cl [Compound 40]	> 10	> 100
Cc1ccc(CN(Cc2ccc(Cl)cc2Cl)C(=O)c2cccc(F)c2)cn1 [Compound 110]	> 10	> 100
COc1cc(C(=O)O)ncc1CN(Cc1cccc(Cl)c1Cl)C(=O)c1cc(F)cc(F)c1 [Compound 208]	< 0.1	< 1
